Source: ChEMBL document CHEMBL3351674, “Novel polycarboxylate porphyrins: synthesis, characterization, photophysical properties and preliminary antimicrobial study against Gram-positive bacteria” (Bioorg Med Chem Lett, 2015)
Activity calls are given as the source filed them. The calls are words filed in the database; no cut-off is given here.

What was measured:
[1] = Photostability of the compound in air-saturated phosphate buffer solution under 2.5 mW/cm'2 white light; type: physicochemical
[2] = 2-octanol-aqueous buffer partition coefficient, logP of the compound at pH 7.4; type: physicochemical
Staphylococcus aureus = experiment: Antibacterial activity against Staphylococcus aureus assessed as decrease in cell viability at > 50 uM after 30 mins under 2.5 mW/cm'2 white light by confocal microscopy/UV-diode laser method; type: functional, organism-based
Bacillus cereus = experiment: Antibacterial activity against Bacillus cereus assessed as decrease in cell viability at > 50 uM after 30 mins under 2.5 mW/cm'2 white light by confocal microscopy/UV-diode laser method; type: functional, organism-based
[3] = Photostability of the compound in nitrogen-saturated phosphate buffer solution under 2.5 mW/cm'2 white light; type: physicochemical

| Stability [1] | logD [2] | Stability [3] | SMILES | Activity (Staphylococcus aureus) | Activity (Bacillus cereus) |
| --- | --- | --- | --- | --- | --- |
| Unstable | -0.77 | Stable | Cc1cc(C)c(-c2c3nc(c(-c4c(OCC(=O)O)cc(OCC(=O)O)cc4OCC(=O)O)c4ccc([nH]4)c(-c4c(C)cc(C)cc4C)c4nc(c(-c5c(OCC(=O)O)cc(OCC(=O)O)cc5OCC(=O)O)c5ccc2[nH]5)C=C4)C=C3)c(C)c1 | Active | Active |
| Unstable | -2.17 | Stable | O=C(O)COc1cc(OCC(=O)O)c(-c2c3nc(c(-c4ccc(C(=O)O)cc4)c4ccc([nH]4)c(-c4c(OCC(=O)O)cc(OCC(=O)O)cc4OCC(=O)O)c4nc(c(-c5ccc(C(=O)O)cc5)c5ccc2[nH]5)C=C4)C=C3)c(OCC(=O)O)c1 | Active | inactive |
|  | 1.66 |  | CC(C)(C)OC(=O)COc1cc(OCC(=O)OC(C)(C)C)c(-c2c3nc(c(-c4ccc(C(=O)O)cc4)c4ccc([nH]4)c(-c4c(OCC(=O)OC(C)(C)C)cc(OCC(=O)OC(C)(C)C)cc4OCC(=O)OC(C)(C)C)c4nc(c(-c5ccc(C(=O)O)cc5)c5ccc2[nH]5)C=C4)C=C3)c(OCC(=O)OC(C)(C)C)c1 |  |  |
